Results on 21 molecules are retold here after patent US20250263424A1, “KRAS INHIBITORS” (Bristol-Myers Squibb Company, priority 2022, published 2025).

Recombinant GMPPNP-loaded KRAS G12C (KRAS-G12C(ON), active form), sequence (P01116 1-188 isoform P01116-2 G12C): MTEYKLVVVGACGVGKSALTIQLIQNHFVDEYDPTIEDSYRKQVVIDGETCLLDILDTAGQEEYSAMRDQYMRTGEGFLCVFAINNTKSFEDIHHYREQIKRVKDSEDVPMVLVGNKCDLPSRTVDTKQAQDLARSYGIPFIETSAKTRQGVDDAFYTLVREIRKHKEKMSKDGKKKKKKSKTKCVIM

The first test addresses Recombinant GMPPNP-loaded KRAS G12C (KRAS-G12C(ON), active form) (Homo sapiens, UniProt P01116, G12C). In words: KRAS G12C RAF Disruption Assay (HTRF). It is filed as biochemical. The note with it: GMPPNP-loaded KRAS G12C 5 nM, GST-RAF1 RBD 9 nM, values given in μM, read-out: KRASG12C RAF Disruption Assay (IC50). The method, then: This is a functional assay that measures activity of compounds against […]., the active form of KRAS G12C. Recombinant GMPPNP-loaded KRAS G12C (5 nM) was treated with compound at room temperature for 20 minutes in assay buffer (50 mM Tris pH 7.5, 100 mM NaCl, 1 mM MgCl2, 1 mM DTT, 100 μg/ml BSA). Recombinant GST-RAF1 RBD (9 nM) was added, and the reaction mixture was incubated for 20 minutes. SA-Tb (0.25 nM) was added, and the reaction mixture was incubated for 3 hours. HTRF signal was measured (PerkinElmer Envision), the signal ratio (λem 520/λem 495) was calculated, and IC50 values were calculated from the dose-response curve.
On the technique in general: TR-FRET usually uses a lanthanide donor and a delayed reading to cut background.
By IC50 is commonly meant the point on the concentration scale where inhibition reaches its midpoint. As for `Cc1cc(N)nc(-c2c(Cl)cc3c(N4CCC5(CN(C(=O)/C(F)=C/c6nccs6)C5)C4)nc(OC[C@@]45CCCN4C[C@H](F)C5)nc3c2F)c1C(F)(F)F` (atropisomer, axis not shown; (M)) [Example 9, (Z)-1-(6-((7M)-7-(6-amino-4-methyl-3-(trifluoromethyl)pyridin-2-yl)-6-chloro-8-fluoro-2-(((2R,7aS)-2-fluorotetrahydro-1H-pyrrolizin-7a(5H)-yl)methoxy)quinazolin-4-yl)-2,6-diazaspiro[3.4]octan-2-yl)-2-fluoro-3-(thiazol-2-yl)prop-2-en-1-one], the half-inhibitory concentration (IC50) was 1.9 µM.
On to `Cc1cc(N)nc(-c2c(Cl)cc3c(N[C@H]4C[C@@H](NC(=O)/C(F)=C/c5nccs5)C4)nc(OC[C@]45CCCN4C[C@H](F)C5)nc3c2F)c1C(F)(F)F` (atropisomer, axis not shown; (M)) [Example 13, (Z)-N-((1S,3s)-3-(((7M)-7-(6-amino-4-methyl-3-(trifluoromethyl)pyridin-2-yl)-6-chloro-8-fluoro-2-(((2R,7aR)-2-fluorotetrahydro-1H-pyrrolizin-7a(5H)-yl)methoxy)quinazolin-4-yl)amino)cyclobutyl)-2-fluoro-3-(thiazol-2-yl)acrylamide], for which the IC50 stood at 1.1 µM.
Same read-out and setting: to `Cc1cc(N)nc(-c2c(Cl)cc3c(N4CCN(C(=O)/C(F)=C/c5nccs5)[C@@H](CC(N)=O)C4)nc(OC[C@@H]4CCCN4C)nc3c2F)c1C(F)(F)F` (atropisomer, axis not shown; (M)) [Example 47, 2-[(2S)-4-[(7M)-7-[6-amino-4-methyl-3-(trifluoromethyl)pyridin-2-yl]-6-chloro-8-fluoro-2-{[(2S)-1-methylpyrrolidin-2-yl]methoxy}quinazolin-4-yl]-1-[(2Z)-2-fluoro-3-(thiazol-2-yl)prop-2-enoyl]piperazin-2-yl]acetamide] belongs 1.33 µM; to `Cc1cc(N)nc(-c2c(Cl)cc3c(N4C[C@]5(NC(=O)/C(F)=C/c6nccs6)CC[C@H]4C5)nc(OC[C@@H]4CCCN4C)nc3c2F)c1C(F)(F)F` (atropisomer, axis not shown; (M)) [Example 48, (2Z)-N-[(1S,4S)-2-[(7M)-7-[6-amino-4-methyl-3-(trifluoromethyl)pyridin-2-yl]-6-chloro-8-fluoro-2-{[(2S)-1-methylpyrrolidin-2-yl]methoxy}quinazolin-4-yl]-2-azabicyclo[2.2.1]heptan-4-yl]-2-fluoro-3-(thiazol-2-yl)prop-2-enamide], 2.59 µM.
Consider `Cc1cc(N)nc(-c2c(Cl)cc3c(N4C[C@H]5CC[C@@H]4[C@@H]5NC(=O)/C(F)=C/c4nccs4)nc(OC[C@@H]4CCCN4C)nc3c2F)c1C(F)(F)F` (atropisomer, axis not shown; (M)) [Example 49, (2Z)-N-[(1R,4R,7R)-2-[(7M)-7-[6-amino-4-methyl-3-(trifluoromethyl)pyridin-2-yl]-6-chloro-8-fluoro-2-{[(2S)-1-methylpyrrolidin-2-yl]methoxy}quinazolin-4-yl]-2-azabicyclo[2.2.1]heptan-7-yl]-2-fluoro-3-(1,3-thiazol-2-yl)prop-2-enamide], for which the concentration for half-maximal inhibition (IC50) worked out at 2.26 µM.
On the same count and under the same terms, to `Cc1cc(N)nc(-c2c(Cl)cc3c(N4[C@@H]5CC[C@H]4[C@H]4CN(C(=O)/C(F)=C/c6nccs6)C[C@H]45)nc(OC[C@]45CCCN4C[C@H](F)C5)nc3c2F)c1C(F)(F)F` (atropisomer, axis not shown; (aR)) [Example 17, (Z)-1-((3aR,4S,7R,7aS)-8-((7M)-7-(6-amino-4-methyl-3-(trifluoromethyl)pyridin-2-yl)-6-chloro-8-fluoro-2-(((2R,7aR)-2-fluorotetrahydro-1H-pyrrolizin-7a(5H)-yl)methoxy)quinazolin-4-yl)octahydro-2H-4,7-epiminoisoindol-2-yl)-2-fluoro-3-(thiazol-2-yl)prop-2-en-1-one] belongs 5.8 µM; to `C[C@H]1CN(C(=O)/C(F)=C/c2ccccn2)CCN1c1nc(OC[C@@H]2CCCN2C)nc2c(F)c(-c3cccc4cccc(Cl)c34)c(Cl)cc12` (single isomer, unassigned) [Example 3], 5.5 µM; to `Cc1cc(N)nc(-c2c(Cl)cc3c(N4CC5CCC(C4)N5C(=O)/C(F)=C/c4ccccn4)nc(OC[C@]45CCCN4C[C@H](F)C5)nc3c2F)c1C(F)(F)F` (single isomer, unassigned) [Example 5], 2.7 µM.
`Cc1cc(N)nc(-c2c(Cl)cc3c(N4CC5CN(C(=O)/C(F)=C/c6nccs6)C5C4)nc(OC[C@]45CCCN4C[C@H](F)C5)nc3c2F)c1C(F)(F)F` (single isomer, unassigned) [Example 15, Isomer 1]: the IC50 amounted to 93.8 µM.
Consider `Cc1cc(N)nc(-c2c(Cl)cc3c(N4CC5CN(C(=O)/C(F)=C/c6nccs6)C5C4)nc(OC[C@]45CCCN4C[C@H](F)C5)nc3c2F)c1C(F)(F)F` (single isomer, unassigned) [Example 15, Isomer 2], for which the IC50 amounted to 47.4 µM.
Consider `C#Cc1c(F)ccc2cc(O)cc(-c3c(Cl)cc4c(N5CC6CCC(C5)N6C(=O)/C(F)=C/c5ccccn5)nc(OC[C@@H]5CCCN5C)nc4c3F)c12` (single isomer, unassigned) [Example 20, Isomer 1], for which the 50% inhibitory concentration (IC50) is 16.5 µM.
Consider `C#Cc1c(F)ccc2cc(O)cc(-c3c(Cl)cc4c(N5CC6CCC(C5)N6C(=O)/C(F)=C/c5ccccn5)nc(OC[C@@H]5CCCN5C)nc4c3F)c12` (single isomer, unassigned) [Example 20, Isomer 2], for which the concentration for half-maximal inhibition (IC50) was above 100 µM.
On the same count and under the same terms, to `Cc1cc(N)nc(-c2c(Cl)cc3c(N4CCC5C4CCN5C(=O)/C(F)=C/c4nccs4)nc(OC[C@]45CCCN4C[C@H](F)C5)nc3c2F)c1C(F)(F)F` (single isomer, unassigned) [Example 25, Isomer 1] belongs 14.1 µM; to `Cc1cc(N)nc(-c2c(Cl)cc3c(N4CCC5C4CCN5C(=O)/C(F)=C/c4nccs4)nc(OC[C@]45CCCN4C[C@H](F)C5)nc3c2F)c1C(F)(F)F` (single isomer, unassigned) [Example 25, Isomer 2], 67.6 µM.
On the same count and under the same terms, to `Cc1cc(N)nc(-c2c(Cl)cc3c(N4CCC5C(CCN5C(=O)/C(F)=C/c5nccs5)C4)nc(OC[C@]45CCCN4C[C@H](F)C5)nc3c2F)c1C(F)(F)F` (single isomer, unassigned) [Example 26, Isomer 1] belongs 3.37 µM.
Same read-out and setting: with `Cc1cc(N)nc(-c2c(Cl)cc3c(N4CCC5C(CCN5C(=O)/C(F)=C/c5nccs5)C4)nc(OC[C@]45CCCN4C[C@H](F)C5)nc3c2F)c1C(F)(F)F` (single isomer, unassigned) [Example 26, Isomer 2] the figure was 55.2 µM; with `C[C@H]1CN(C(=O)/C(F)=C/c2nccs2)CCN1c1nc(OC[C@@H]2CCCN2C)nc2c(F)c(-c3cccc4cccc(Cl)c34)c(Cl)cc12` [Example 1, (Z)-1-((3S)-4-(6-chloro-7-(8-chloronaphthalen-1-yl)-8-fluoro-2-(((S)-1-methylpyrrolidin-2-yl)methoxy)quinazolin-4-yl)-3-methylpiperazin-1-yl)-2-fluoro-3-(thiazol-2-yl)prop-2-en-1-one], 49 µM; with `C[C@H]1CN(C(=O)/C(F)=C/c2ncccn2)CCN1c1nc(OC[C@@H]2CCCN2C)nc2c(F)c(-c3cccc4cccc(Cl)c34)c(Cl)cc12` [Example 2, (Z)-1-((3S)-4-(6-chloro-7-(8-chloronaphthalen-1-yl)-8-fluoro-2-(((S)-1-methylpyrrolidin-2-yl)methoxy)quinazolin-4-yl)-3-methylpiperazin-1-yl)-2-fluoro-3-(pyrimidin-2-yl)prop-2-en-1-one], 61.3 µM.
On to `Cc1cc(N)nc(-c2c(Cl)cc3c(N4CC5CCC4CN5C(=O)/C(F)=C/c4ccccn4)nc(OC[C@@H]4CCCN4C)nc3c2F)c1C(F)(F)F` (stereo partly drawn) [Example 6, (Z)-1-(5-((7M)-7-(6-amino-4-methyl-3-(trifluoromethyl)pyridin-2-yl)-6-chloro-8-fluoro-2-(((S)-1-methylpyrrolidin-2-yl)methoxy)quinazolin-4-yl)-2,5-diazabicyclo[2.2.2]octan-2-yl)-2-fluoro-3-(pyridin-2-yl)prop-2-en-1-one], for which the IC50 amounted to 4.9 µM.

The test is the same for the next values; noted with them: GMPPNP-loaded KRAS G12C 5 nM, GST-RAF1 RBD 9 nM, values in nM, read-out: KRASG12C RAF Disruption Assay (IC50).
On to `Cc1cc(N)nc(-c2c(Cl)cc3c(N4C[C@]5(NC(=O)/C(F)=C/c6nccs6)CC[C@H]4C5)nc(OC[C@@H]4CCCN4C)nc3c2F)c1C(F)(F)F` (atropisomer, axis not shown) [Example 69, (Z)-N-((1S,4S)-2-(7M-(6-amino-4-methyl-3-(trifluoromethyl)pyridin-2-yl)-6-chloro-8-fluoro-2-(((S)-1-methylpyrrolidin-2-yl)methoxy)quinazolin-4-yl)-2-azabicyclo[2.2.1]heptan-4-yl)-2-fluoro-3-(thiazol-2-yl)acrylamide], for which the IC50 worked out at 2.6 µM.
Still for that read-out and setting: to `Cc1cc(N)nc(-c2c(Cl)cc3c(N4C[C@]5(NC(=O)/C(F)=C/c6ccccn6)CC[C@H]4C5)nc(OC[C@]45CCCN4C[C@H](F)C5)nc3c2F)c1C(F)(F)F` (atropisomer, axis not shown; (M)) [Example 43, (2Z)-N-[(1S,4S)-2-[(7M)-2-{[(2R,7aR)-2-fluoro-hexahydro-1H-pyrrolizin-7a-yl]methoxy}-7-[6-amino-4-methyl-3-(trifluoromethyl)pyridin-2-yl]-6-chloro-8-fluoroquinazolin-4-yl]-2-azabicyclo[2.2.1]heptan-4-yl]-2-fluoro-3-(pyridin-2-yl)prop-2-enamide] belongs 0.19 µM.
